Results reported in PMC11375786, “Induction of Paraptotic Cell Death in Cancer Cells by Triptycene–Peptide Hybrids and the Revised Mechanism of Paraptosis II” (Biochemistry, 2024).
Like-named read-outs stand apart in the source and are kept apart here. Numbered stars: 1 amine (or outer) side, 2 acyl side, 3 side chain; on linkers, the order of the positions; unused ones are H or OH. Bridge positions count the residues as written; N and C are the ends. Square brackets hold non-standard residues; d marks the D form. Peptide text beside a SMILES is read from it. I, II: the chains in the order shown. * marks the point of attachment. X1 = O=C(COc1cccc2c1C1c3c(OCC(=O)NCCCCCCCCN[*:2])cccc3C2c2cccc(OCC(=O)NCCCCCCCCN[*:3])c21)NCCCCCCCCN[*:1]; Cha = N[C@@H](CC1CCCCC1)C(=O)O; Cbz = O=C(OCc1ccccc1)*; CH2F = FC*

What was measured:
[1] = tested on: Jurkat cells; assay: MTT assay of Jurkat cells treated with 4 or celastrol in the presence of inhibitors; format: cell-based; conditions: DIDS 75 or 100 μM, RuRed 75 μM; for Inhibition of 4-induced cell death in Jurkat cells: 4 2.5 μM 1 h, Z-VAD-fmk 15 μM, necrostatin-1 30 μM, 3-MA 10 μM, CCCP 40 μM, 2-APB 50 or 100 μM; for Inhibition of celastrol-induced cell death in Jurkat cells: celastrol 5 μM 24 h, 2-APB 50 μM
Protocol: (a) Jurkat cells: Jurkat cells (2.0 × 10^5 cells/mL) in RPMI 1640 medium with 10% FBS were pretreated with the inhibitors (Z-VAD-fmk (final concentration = 15 μM), necrostatin-1 (final concentration = 30 μM), 3-MA (final concentration = 10 μM), and DIDS (75 or 100 μM)) for 3 h or pretreated with other inhibitors (CCCP (40 μM), FCCP (40 μM), 2-APB (50 or 100 μM) and RuRed (75 μM)) for 1 h under 5% CO2 at 37 °C. After incubation, 4 (final concentration = 2.5 μM) was added to the cell suspension, which was then incubated for 1 h at 37 °C. To test the effect of celastrol, the cells were pretreated with the aforementioned inhibitors and then incubated with celastrol (5 μM) for 24 h. MTT reagent (5 mg/mL) in PBS (10 μL) was added to the cells. After incubation at 37 °C for 4 h, a formazan lysis solution (10% sodium dodecyl sulfate (SDS) in 0.01 N HCl) (100 μL) was added, and the resultant solution was incubated overnight under the same conditions, followed by measurement of the absorbance at 570 nm using a microplate reader (ARVO, PerkinElmer).

[2] = tested on: HeLa-S3 cells; assay: MTT assay of HeLa-S3 cells treated with 4 or celastrol in the presence of inhibitors; format: cell-based, human; conditions: 4 5 μM 1 h; Z-VAD-fmk 100 μM, necrostatin-1 100 μM, 3-MA 5 mM, CCCP 160 μM, DIDS 75 or 100 μM
Protocol: (b) HeLa-S3 cells: HeLa-S3 cells (2.0 × 10^5 cells/mL) in MEM medium with 10% FBS were pretreated with the inhibitors (3-MA (5 mM), and DIDS (75 or 100 μM)) for 3 h or pretreated with other inhibitors (Z-VAD-fmk (100 μM), necrostatin-1 (100 μM), CCCP (160 μM), and FCCP (80 μM)) for 1 h under 5% CO2 at 37 °C. After the incubation, 4 (final concentration = 5 μM) was added to the cell suspension, which was then incubated for 1 h at 37 °C. Subsequent procedures were the same as those used for the Jurkat cells.

[3] = tested on: A549 cells; assay: MTT assay of A549 cells treated with 4 or celastrol in the presence of inhibitors; format: cell-based, human; conditions: 4 10 μM 1 h; Z-VAD-fmk 100 μM, necrostatin-1 100 μM, 3-MA 1 mM, CCCP 250 μM, DIDS 250 μM
Protocol: (c) A549 cells: A549 cells (2.0 × 10^5 cells/mL) in DMEM medium with 10% FBS were pretreated with the inhibitors (3-MA (1 mM), and DIDS (250 μM)) for 3 h or pretreated with other inhibitors (Z-VAD-fmk (100 μM), necrostatin-1 (100 μM), CCCP (250 μM), and FCCP (10 μM)) for 1 h under 5% CO2 at 37 °C. After incubation, 4 (final concentration = 10 μM) was added to the cell suspension, which was then incubated for 1 h at 37 °C. Subsequent procedures were the same as those used for the Jurkat cells.

[4] = tested on: Jurkat cells; assay: cells
Protocol: (§1) HeLa S3 cells (human cervical carcinoma) were cultured in Minimum essential medium (MEM) containing 10% FBS, penicillin, and streptomycin. A549 cells (human lung carcinoma) and IMR90 cells (human fetal lung fibroblast) were cultured in Dulbecco’s modified Eagle’s medium (DMEM) with 10% FBS, penicillin, and streptomycin. All cells were cultured at 37 °C under a humidified atmosphere containing 5% CO2.
(§2) Jurkat, HeLa-S3, A549 cells (2.0 × 10^5 cells/mL) and IMR90 cells (1.0 × 10^5 cells/mL) were incubated in the presence of 3–7 for 1 h, and etoposide, cisplatin and celastrol for 24 h (50 μL) in cell culture medium under CO2 at 37 °C in 96-well plates (BD Falcon). MTT reagent (5 mg/mL) in PBS (10 μL) was then added to the cells. After incubation at 37 °C for 4 h, a formazan lysis solution (10% sodium dodecyl sulfate (SDS) in 0.01 N HCl) (100 μL) was added and the resultant solution was incubated overnight under the same conditions, which was followed by measurement of the absorbance at 570 nm using a microplate reader (ARVO, PerkinElmer).

[5] = tested on: A549 cells; assay: cells
Protocol: as §1, §2

[6] = tested on: HeLa-S3 cells; assay: cells
Protocol: as §1, §2

[7] = tested on: IMR90 cells; assay: cells
Protocol: as §1, §2

[8] = tested on: labile Fe^2+ in mitochondria of Jurkat cells; assay: Mito-FerroGreen fluorescence microscopy in Jurkat cells; format: cell-based; conditions: 4 2.5 μM 1 h; celastrol 5 μM, etoposide 5 μM, cisplatin 100 μM 24 h
Protocol: (§3) Jurkat cells (2.0 × 10^5 cells) were treated with 4 (2.5 μM), etoposide (5 μM), cisplatin (100 μM) and celastrol (5 μM) and stained with Mito-FerroGreen (a probe for labile Fe^2+ in mitochondria) (5 μM) and zinquin (a probe for intracellular Zn^2+) (25 μM). The cell images were observed via fluorescence microscopy.

[9] = tested on: intracellular Zn^2+ in Jurkat cells; assay: Zinquin fluorescence microscopy in Jurkat cells; format: cell-based; conditions: 4 2.5 μM 1 h; celastrol 5 μM, etoposide 5 μM, cisplatin 100 μM 24 h
Protocol: as §3

EC50 ([4]; 1 h) [µM]	EC50 ([6]; 1 h) [µM]	EC50 ([7]; 1 h) [µM]	Structure (SMILES)	Inhibition of 4-induced cell death in Jurkat cells [1]	Inhibition of 4-induced cell death in HeLa-S3 cells [2]	Inhibition of 4-induced cell death in A549 cells [3]	other results
–	–	–	O=S(=O)(O)c1cc(N=C=S)ccc1C=Cc1ccc(N=C=S)cc1S(=O)(=O)O [DIDS, 4,4′-diisothiocyano-2,2′-stilbenedisulfonic acid]	considerably inhibits	considerably inhibits	considerably inhibits	Inhibition of celastrol-induced cell death in Jurkat cells [1]: did not significantly stop cell death
2.2 ± 0.5	5.3 ± 0.5	> 25	NCCCC[C@H](NC(=O)[C@H](CCCCN)NC(=O)[C@@H](N)CCCCN)C(=O)NCC(=O)NCC(=O)NCCCCCCCCNC(=O)COc1cccc2c1C1c3c(OCC(=O)NCCCCCCCCNC(=O)CNC(=O)CNC(=O)[C@H](CCCCN)NC(=O)[C@H](CCCCN)NC(=O)[C@@H](N)CCCCN)cccc3C2c2cccc(OCC(=O)NCCCCCCCCNC(=O)CNC(=O)CNC(=O)[C@H](CCCCN)NC(=O)[C@H](CCCCN)NC(=O)[C@@H](N)CCCCN)c21 [compound 3]	–	–	–	EC50 ([5]; 1 h): 8.6 ± 1.8 µM
> 25	> 25	> 25	NCCCC[C@H](NC(=O)[C@H](CCCCN)NC(=O)[C@@H](N)CCCCN)C(=O)N[C@@H](CC1CCCCC1)C(=O)NCC(=O)O [KKKChaG, H2N-KKKChaG] (H-KKK[Cha]G-OH; C-terminus assumed)	–	–	–	EC50 ([5]; 1 h): > 25 µM
–	–	–	NCCOB(c1ccccc1)c1ccccc1 [2-APB]	rather weak	–	–	Inhibition of celastrol-induced cell death in Jurkat cells [1]: did not significantly stop cell death
–	–	–	COc1cc([C@@H]2c3cc4c(cc3[C@@H](O[C@@H]3O[C@@H]5CO[C@@H](C)O[C@H]5[C@H](O)[C@H]3O)[C@H]3COC(=O)[C@H]23)OCO4)cc(OC)c1O [etoposide]	–	–	–	Emission from Mito-FerroGreen (free Fe2+ in mitochondria) in Jurkat cells [8]: increases in both free-Fe^2+ and free-Zn^2+; EC50 ([4]; Homo sapiens, Jurkat, 24 h, read-out: EC50 against Jurkat cells): 3.1 ± 0.1 µM; EC50 ([5]; Homo sapiens, A549, read-out: EC50 against A549 cells): > 100 µM; EC50 ([6]; Homo sapiens, HeLa S3, 24 h, read-out: EC50 against HeLa-S3 cells): > 100 µM; EC50 ([7]; Homo sapiens, IMR-90, 24 h, read-out: EC50 against IMR90 cells): > 25 µM; Emission from zinquin (intracellular free Zn2+) in Jurkat cells [9]: increases in both free-Fe^2+ and free-Zn^2+
–	–	–	CN1C(=O)C(Cc2c[nH]c3ccccc23)NC1=S (centres unmarked) [necrostatin-1]	negligibly inhibited	negligibly inhibited	negligibly inhibited	–
–	–	–	N.N.N.N.N.N.N.N.N.N.N.N.N.N.[Cl-].[Cl-].[Cl-].[Cl-].[Cl-].[Cl-].[O-2].[O-2].[Ru+3].[Ru+3].[Ru+4] [RuRed, Ruthenium Red]	rather weak	–	–	Inhibition of celastrol-induced cell death in Jurkat cells [1]: did not significantly stop cell death
–	–	–	COC(=O)CC(NC(=O)C(C)NC(=O)C(NC(=O)OCc1ccccc1)C(C)C)C(=O)CF (stereo not drawn) [Z-VAD-fmk, benzyloxycarbonyl-VAD(OMe)-fluoromethylketone] (Cbz-Val-Ala-Asp(OMe)-CH2F; configuration not given here)	negligibly inhibited	negligibly inhibited	negligibly inhibited	–
1.2 ± 0.1	3.3 ± 0.2	> 25	NCCCC[C@H](NC(=O)[C@H](CC1CCCCC1)NC(=O)[C@H](CCCCN)NC(=O)[C@H](CC1CCCCC1)NC(=O)[C@@H](N)CCCCN)C(=O)NCC(=O)NCCCCCCCCNC(=O)COc1cccc2c1C1c3c(OCC(=O)NCCCCCCCCNC(=O)CNC(=O)[C@H](CCCCN)NC(=O)[C@H](CC4CCCCC4)NC(=O)[C@H](CCCCN)NC(=O)[C@H](CC4CCCCC4)NC(=O)[C@@H](N)CCCCN)cccc3C2c2cccc(OCC(=O)NCCCCCCCCNC(=O)CNC(=O)[C@H](CCCCN)NC(=O)[C@H](CC3CCCCC3)NC(=O)[C@H](CCCCN)NC(=O)[C@H](CC3CCCCC3)NC(=O)[C@@H](N)CCCCN)c21 [compound 6] (I: H-K[Cha]K[Cha]KG / II: H-K[Cha]K[Cha]KG / III: H-K[Cha]K[Cha]KG; linker I:C-II:C-III:C via X1)	–	–	–	–
2.1 ± 0.1	2.7 ± 0.5	> 12.5	N=C(N)NCCC[C@H](NC(=O)[C@H](CC1CCCCC1)NC(=O)[C@H](CCCNC(=N)N)NC(=O)[C@H](CC1CCCCC1)NC(=O)[C@@H](N)CCCNC(=N)N)C(=O)NCC(=O)NCCCCCCCCNC(=O)COc1cccc2c1C1c3c(OCC(=O)NCCCCCCCCNC(=O)CNC(=O)[C@H](CCCNC(=N)N)NC(=O)[C@H](CC4CCCCC4)NC(=O)[C@H](CCCNC(=N)N)NC(=O)[C@H](CC4CCCCC4)NC(=O)[C@@H](N)CCCNC(=N)N)cccc3C2c2cccc(OCC(=O)NCCCCCCCCNC(=O)CNC(=O)[C@H](CCCNC(=N)N)NC(=O)[C@H](CC3CCCCC3)NC(=O)[C@H](CCCNC(=N)N)NC(=O)[C@H](CC3CCCCC3)NC(=O)[C@@H](N)CCCNC(=N)N)c21 [compound 7] (I: H-R[Cha]R[Cha]RG / II: H-R[Cha]R[Cha]RG / III: H-R[Cha]R[Cha]RG; linker I:C-II:C-III:C via X1)	–	–	–	EC50 ([5]; 1 h): 1.5 ± 0.1 µM
–	–	–	Cn1cnc(N)c2ncnc1-2 [3-MA, 3-methyladenine]	negligibly inhibited	negligibly inhibited	negligibly inhibited	–
